Measurements published in ChEMBL document CHEMBL4483862, “Open-source discovery of chemical leads for next-generation chemoprotective antimalarials” (2018).

Tested on: Plasmodium berghei
Assay: Luciferase/luciferin-expressing antifolate-resistant parasites were used to infect a culture of HepG2 cells that were pre-incubated with compounds. Infected hepatocytes emit light due to the luciferase reaction. Assay results are presented as the percent inhibition of light emission compared to control. […]
Assay type: functional
Conditions: sporozoite; for IC90: read-out: LUCIFERASE INFECTION ASSAY - IC90
[1] = read-out: LUCIFERASE INFECTION ASSAY - IC50

Row | Compound | IC50 [1] | IC90 | further results
1 | CC(=O)Nc1cc(-c2ccc(C(=O)NC3CC3)cc2)cn2c(-c3ccc(F)c(Cl)c3)cnc12 | > 7.13 µM | > 7.13 µM | –
2 | Cc1nc(-c2ccsc2)sc1C(=O)Nc1nc(-c2ccc(NS(C)(=O)=O)cc2)cs1 | 5.84 µM | 8.82 µM | –
3 | COc1cc(-c2cc3c(cn2)nc(NCc2cccc(C)c2)n3C)ccc1O | > 10 µM | > 10 µM | –
4 | Cc1nc(COc2ccc(C(=O)Nc3nc(-c4ccccn4)cs3)cc2)no1 | – | 3.46 µM | IC50 (HEPG2TOX_HILL_SLOPE 10.4, HEPG2TOX_R_SQUARED 0.524, PBLUC_HILL_SLOPE 14, PBLUC_R_SQUARED 0.305, read-out: LUCIFERASE INFECTION ASSAY - IC50): 2.96 µM
5 | CC(C(=O)Nc1cccnc1)c1ccc2c(c1)[nH]c1ccc(Cl)cc12 (stereo not given) | – | > 9.43 µM | IC50 (HEPG2TOX_HILL_SLOPE 3.6, HEPG2TOX_R_SQUARED 0.842, PBLUC_HILL_SLOPE 14.2, PBLUC_R_SQUARED 0.432, read-out: LUCIFERASE INFECTION ASSAY - IC50): 8.79 µM
6 | O=C(CN1CCN(C/C=C/c2ccccc2)CC1)NC(c1ccccc1)c1ccccc1 | > 10 µM | > 10 µM | –
7 | O=C(CN1CCC(Cc2ccccc2)CC1)NCc1ccc(F)cc1 | – | 4.07 µM | IC50 (PBLUC_HILL_SLOPE 12.9, PBLUC_R_SQUARED 0.271, read-out: LUCIFERASE INFECTION ASSAY - IC50): 3.43 µM
8 | O=C(NC1CC1)c1csc(C(O)c2cccc(C(F)(F)F)c2)n1 (stereo not given) | – | 1.14 µM | IC50 (HEPG2TOX_HILL_SLOPE 2.89, HEPG2TOX_R_SQUARED 0.879, PBLUC_HILL_SLOPE 2.14, PBLUC_R_SQUARED 0.663, read-out: LUCIFERASE INFECTION ASSAY - IC50): 0.408 µM
9 | Cc1oc(-n2cccc2)c(C#N)c1C(=O)Nc1nc(-c2ccccn2)cs1 | 9.43 µM | > 10 µM | –
10 | COc1cc(C(=O)N/N=C(\Cc2ncc[nH]2)c2ccccc2)cc(OC)c1OC | – | > 10 µM | IC50 (HEPG2TOX_HILL_SLOPE 12.3, 3.85, HEPG2TOX_R_SQUARED 0.0839, 0.975, PBLUC_HILL_SLOPE 2.96, PBLUC_R_SQUARED 0.327, read-out: LUCIFERASE INFECTION ASSAY - IC50): 5.09 µM
11 | O=C(Nc1ccc(Cl)c(Cl)c1)Nc1ccc2c(c1)OCCO2 | > 9.73 µM | > 9.73 µM | –
12 | COc1ccc(O)c(/C=N/Nc2ncc(C(F)(F)F)cc2Cl)c1 | – | 3.73 µM | IC50 (HEPG2TOX_HILL_SLOPE 3.8, HEPG2TOX_R_SQUARED 0.813, PBLUC_HILL_SLOPE 18.3, PBLUC_R_SQUARED 0.305, read-out: LUCIFERASE INFECTION ASSAY - IC50): 3.31 µM
13 | Cc1nn(-c2ccccc2)c2c1C(C(F)(F)F)(C(F)(F)F)OC(c1cccc(S(=O)(=O)N3CCCCC3)c1)=N2 | > 10 µM | > 10 µM | –
14 | NC(c1csc(NC(=O)Nc2cccc(C(F)(F)F)c2)n1)C1CCCCC1 (stereo not given) | – | 6.65 µM | IC50 (PBLUC_HILL_SLOPE 23.3, PBLUC_R_SQUARED 0.126, read-out: LUCIFERASE INFECTION ASSAY - IC50): 6.05 µM
15 | Cc1[nH]c2ccccc2c1C1=NNC(=NCc2ccc3c(c2)OCO3)SC1 | – | > 10 µM | IC50 (FFLUC_HILL_SLOPE 2.18, FFLUC_R_SQUARED 0.288, PBLUC_HILL_SLOPE 2.54, PBLUC_R_SQUARED 0.596, read-out: LUCIFERASE INFECTION ASSAY - IC50): 4.55 µM
16 | CN1C(=O)N(CN2CCN(c3ccccn3)CC2)C(=O)C12CCCCC2 | > 10 µM | > 10 µM | –
17 | CC(N=C(S)Nc1ccc(OC(F)F)c(Cl)c1)C(C)(C)C (stereo not given) | – | > 10 µM | IC50 (HEPG2TOX_HILL_SLOPE 8.22, HEPG2TOX_R_SQUARED 0.242, PBLUC_HILL_SLOPE 12.6, PBLUC_R_SQUARED 0.772, read-out: LUCIFERASE INFECTION ASSAY - IC50): 8.6 µM
18 | CCOc1ccc(NC(=S)N/N=C2/C(=O)c3cccc4cccc2c34)cc1 | – | > 10 µM | IC50 (FFLUC_HILL_SLOPE 16.1, FFLUC_R_SQUARED 0.465, PBLUC_HILL_SLOPE 2.76, PBLUC_R_SQUARED 0.814, read-out: LUCIFERASE INFECTION ASSAY - IC50): 4.61 µM
19 | CC(C)c1cccc(N2CC(C(=O)N3CCC(C(N)=O)CC3)CC2=O)c1 (stereo not given) | > 10 µM | > 10 µM | –
20 | Cc1noc(/C=C/c2nn(C)cc2Cl)c1[N+](=O)[O-] | – | 11.7 µM | IC50 (HEPG2TOX_HILL_SLOPE 8.49, HEPG2TOX_R_SQUARED 0.211, PBLUC_HILL_SLOPE 2.15, PBLUC_R_SQUARED 0.722, read-out: LUCIFERASE INFECTION ASSAY - IC50): 4.22 µM
21 | O=C(Nc1ccc(F)cc1)c1ccc(CN2CCc3ccccc3C2)cc1 | > 9.16 µM | > 9.16 µM | –
22 | COc1cc(NC(=O)Nc2ccc3nc(-c4ccoc4)nn3c2)cc(OC)c1OC | > 10 µM | > 10 µM | –
23 | O=C(OCc1csc(-c2ccccc2)n1)c1cc(O)c2ccccc2c1O | – | > 10 µM | IC50 (FFLUC_HILL_SLOPE 21.7, FFLUC_R_SQUARED 0.124, read-out: LUCIFERASE INFECTION ASSAY - IC50): > 10 µM

Row | Compound | IC50 [1] | IC90 | further results
24 | Oc1c(C(Nc2ccccn2)c2ccc(Cl)cc2Cl)ccc2cccnc12 (stereo not given) | – | 5.13 µM | IC50 (FFLUC_HILL_SLOPE 3.3, FFLUC_R_SQUARED 0.0348, HEPG2TOX_HILL_SLOPE 1.34, HEPG2TOX_R_SQUARED 0.812, PBLUC_HILL_SLOPE 6.8, PBLUC_R_SQUARED 0.449, read-out: LUCIFERASE INFECTION ASSAY - IC50): 3.71 µM
25 | Nc1nccnc1C(=O)Nc1nnc(-c2cccc(Br)c2)[nH]1 | > 10 µM | > 10 µM | –
26 | Cc1ccccc1OCCCn1c(CCCNC(=O)c2ccco2)nc2ccccc21 | > 10 µM | > 10 µM | –
27 | Cc1cc(C(=O)N(C)Cc2nc(=O)c3ccccc3[nH]2)c(C)n1-c1ccccc1F | – | > 10 µM | IC50 (PBLUC_HILL_SLOPE 1.44, PBLUC_R_SQUARED 0.478, read-out: LUCIFERASE INFECTION ASSAY - IC50): 6.97 µM
28 | O=C1C(=O)N(Cc2ccc(Cl)cc2)c2c1cccc2C(F)(F)F | – | 3.39 µM | IC50 (FFLUC_HILL_SLOPE 2.39, FFLUC_R_SQUARED 0.89, HEPG2TOX_HILL_SLOPE 3.88, HEPG2TOX_R_SQUARED 0.975, PBLUC_HILL_SLOPE 2.88, PBLUC_R_SQUARED 0.708, read-out: LUCIFERASE INFECTION ASSAY - IC50): 1.58 µM
29 | Cc1nc2sccc2c(=O)n1NC(=O)c1ccc2ccccc2n1 | > 10 µM | > 10 µM | –
30 | CC(C)NC(=O)c1csc(C(O)c2ccc(C(C)(C)C)cc2)n1 (stereo not given) | – | 8.8 µM | IC50 (HEPG2TOX_HILL_SLOPE 1.76, HEPG2TOX_R_SQUARED 0.8, PBLUC_HILL_SLOPE 2.52, PBLUC_R_SQUARED 0.456, read-out: LUCIFERASE INFECTION ASSAY - IC50): 3.68 µM
31 | CCC(C)(C)c1ccc(Oc2ccc(NC(=O)CSc3cccc[n+]3[O-])cc2)cc1 | > 10 µM | > 10 µM | –
32 | CC(=O)N/C(=C\c1ccccc1)C(=O)OCc1ncc(-c2ccccc2)o1 | > 10 µM | > 10 µM | –
33 | FC(F)(F)c1cnc(N/N=C/c2ccccn2)c(Cl)c1 | 3.33 µM | 4 µM | –
34 | CCCCn1c(N)c(-c2nc(CC(C)(C)C)c(C(=O)c3ccc(Br)s3)s2)c(=O)n(C)c1=O | – | > 10 µM | IC50 (PBLUC_HILL_SLOPE 0.7, PBLUC_R_SQUARED 0.683, read-out: LUCIFERASE INFECTION ASSAY - IC50): 2.73 µM
35 | CCCn1c(NC(=O)c2cccnc2SC)nc2ccccc21 | – | > 10 µM | IC50 (PBLUC_HILL_SLOPE 14.8, PBLUC_R_SQUARED 0.146, read-out: LUCIFERASE INFECTION ASSAY - IC50): 9.22 µM
36 | O=C1CN(c2ccc(NC(=O)CCc3ccco3)cn2)CCN1 | > 10 µM | > 10 µM | –
37 | Cc1nc2ccccc2n1CCC(=O)Nc1cccc(C(F)(F)F)c1 | – | 8.78 µM | IC50 (PBLUC_HILL_SLOPE 3.83, PBLUC_R_SQUARED 0.29, read-out: LUCIFERASE INFECTION ASSAY - IC50): 4.95 µM
38 | O=C1c2ccccc2NC(c2cc(Br)cs2)N1C1CC1 (stereo not given) | > 10 µM | > 10 µM | –
39 | Cc1cc2cc(Nc3ccc(S(=O)(=O)NC(C)(C)C)cc3[N+](=O)[O-])ccc2[nH]1 | – | > 10 µM | IC50 (HEPG2TOX_HILL_SLOPE 6.66, HEPG2TOX_R_SQUARED 0.674, PBLUC_HILL_SLOPE 2.21, PBLUC_R_SQUARED 0.655, read-out: LUCIFERASE INFECTION ASSAY - IC50): 4.89 µM
40 | COc1cc2c(cc1OCC(=O)Nc1ccccc1Cl)C=CC(C)(C)O2 | – | > 8.83 µM | IC50 (PBLUC_HILL_SLOPE 1.25, PBLUC_R_SQUARED 0.511, read-out: LUCIFERASE INFECTION ASSAY - IC50): 4.17 µM
41 | CC(C)CC(NC(=O)c1ccc(C#N)cc1)c1ccccc1 (stereo not given) | – | 9.52 µM | IC50 (PBLUC_HILL_SLOPE 10.9, 7.64, PBLUC_R_SQUARED 0.439, 0.355, read-out: LUCIFERASE INFECTION ASSAY - IC50): 8.11 µM
42 | Cc1cccc(C(C)C)c1NC(=O)C(C)Sc1nc2scc(-c3ccccc3Cl)c2c(=O)n1C (stereo not given) | – | 1.19 µM | IC50 (HEPG2TOX_HILL_SLOPE 0.0632, HEPG2TOX_R_SQUARED 0.325, PBLUC_HILL_SLOPE 16, PBLUC_R_SQUARED 0.687, read-out: LUCIFERASE INFECTION ASSAY - IC50): 1.03 µM
43 | Oc1c(Br)cc(Cl)cc1/C=N/NC(=S)NC1CC1 | – | > 9.47 µM | IC50 (PBLUC_HILL_SLOPE 2.42, PBLUC_R_SQUARED 0.376, read-out: LUCIFERASE INFECTION ASSAY - IC50): 4.15 µM
44 | CN(CC(=O)Nc1ccccc1N1CCCC1)Cc1ccc2ccccc2c1 | – | 0.646 µM | IC50 (HEPG2TOX_HILL_SLOPE 0.547, HEPG2TOX_R_SQUARED 0.872, PBLUC_HILL_SLOPE 2.05, PBLUC_R_SQUARED 0.897, read-out: LUCIFERASE INFECTION ASSAY - IC50): 0.221 µM
45 | O=C(Nc1ccccc1C(=O)Nc1nc2ccccc2[nH]1)c1cccs1 | – | > 10 µM | IC50 (HEPG2TOX_HILL_SLOPE 2.23, HEPG2TOX_R_SQUARED 0.95, read-out: LUCIFERASE INFECTION ASSAY - IC50): > 10 µM
